What was measured:
Format in all cases: in vivo
[1] = test system: giant foxtail (Setaria faberi); assay: Test G Pre-Emergence Protocol; details: Setaria faberi, pre-emergence, 312 h, evaluated after 13 days; for pest or weed control at 15.625 g/ha: 15.625 g ai/ha; for pest or weed control at 15.625 g/ha / pest or weed control at 250 g/ha: read-out: Foxtail, Giant damage rating (100=total damage to plant; 0=no damage to plant); for pest or weed control at 62.5 g/ha: 62.5 g ai/ha, 100=total damage to plant, 0=no damage to plant, read-out: plant damage rating, Foxtail, Giant; for pest or weed control at 250 g/ha: 250 g ai/ha
Method in brief: (§1)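 Scores are visual damage ratings from 0 (no damage) to 100 (total plant kill), taken 13 days after treatment. Compound was sprayed one day post-sowing at 15.625, 62.5 or 250 g/ha in 50:50 acetone/water with 0.5% Tween 20.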

[2] = test system: velvetleaf (Abutilon theophrasti); assay: Test G Pre-Emergence Protocol; details: Abutilon theophrasti, pre-emergence, 312 h, evaluated after 13 days; for pest or weed control at 15.625 g/ha: 15.625 g ai/ha; for pest or weed control at 15.625 g/ha / pest or weed control at 250 g/ha: read-out: Velvetleaf damage rating (100=total damage to plant; 0=no damage to plant); for pest or weed control at 62.5 g/ha: 62.5 g ai/ha, 100=total damage to plant, 0=no damage to plant, read-out: plant damage rating, Velvetleaf; for pest or weed control at 250 g/ha: 250 g ai/ha
Method in brief: as §1

[3] = test system: redroot pigweed (Amaranthus retroflexus); assay: Test G Pre-Emergence Protocol; details: Amaranthus retroflexus, pre-emergence, 312 h, evaluated after 13 days; for pest or weed control at 15.625 g/ha: 15.625 g ai/ha; for pest or weed control at 15.625 g/ha / pest or weed control at 250 g/ha: read-out: Pigweed, Redroot damage rating (100=total damage to plant; 0=no damage to plant); for pest or weed control at 62.5 g/ha: 62.5 g ai/ha, 100=total damage to plant, 0=no damage to plant, read-out: plant damage rating, Pigweed, Redroot; for pest or weed control at 250 g/ha: 250 g ai/ha
Method in brief: as §1

[4] = test system: ivy-leaved morning glory (Ipomoea hederacea); assay: Test G Pre-Emergence Protocol; details: Ipomoea, pre-emergence, 312 h, evaluated after 13 days; for pest or weed control at 15.625 g/ha: 15.625 g ai/ha, read-out: Morning-glory, Ivy-leaved damage rating (100=total damage to plant; 0=no damage to plant); for pest or weed control at 62.5 g/ha: 62.5 g ai/ha, 100=total damage to plant, 0=no damage to plant, read-out: plant damage rating, Morningglory, Ivy-leaved; for pest or weed control at 250 g/ha: 250 g ai/ha, read-out: Morningglory, Ivy-leaved damage rating (100=total damage to plant; 0=no damage to plant)
Method in brief: as §1

[5] = test system: barnyardgrass (Echinochloa crus-galli); assay: Test G Pre-Emergence Protocol; details: Echinochloa crus-galli, pre-emergence, 312 h, evaluated after 13 days; for pest or weed control at 15.625 g/ha: 15.625 g ai/ha, read-out: Barnyard grass damage rating (100=total damage to plant; 0=no damage to plant); for pest or weed control at 62.5 g/ha: 62.5 g ai/ha, 100=total damage to plant, 0=no damage to plant, read-out: plant damage rating, Barnyardgrass; for pest or weed control at 250 g/ha: 250 g ai/ha, read-out: Barnyardgrass damage rating (100=total damage to plant; 0=no damage to plant)
Method in brief: as §1

corn (Zea mays) [6] = assay: Test G Pre-Emergence Protocol; details: Zea mays, pre-emergence, 312 h, evaluated after 13 days; for plant injury at 15.625 g/ha: 15.625 g ai/ha; for plant injury at 15.625 g/ha / plant injury at 250 g/ha: read-out: Corn damage rating (100=total damage to plant; 0=no damage to plant); for plant injury at 62.5 g/ha: 62.5 g ai/ha, 100=total damage to plant, 0=no damage to plant, read-out: plant damage rating, Corn; for plant injury at 250 g/ha: 250 g ai/ha
Method in brief: as §1

[7] = test system: giant foxtail (Setaria faberi); assay: Test G Post-Emergence Protocol; details: Setaria faberi, post-emergence, 312 h; for pest or weed control at 15.625 g/ha: 15.625 g ai/ha, evaluated after 13 days (100=total damage to plant; 0=no damage to plant), read-out: Foxtail, Giant damage rating; for pest or weed control at 62.5 g/ha: 62.5 g ai/ha, read-out: Foxtail, Giant damage rating (100=total damage to plant; 0=no damage to plant); for pest or weed control at 62.5 g/ha / pest or weed control at 250 g/ha: evaluated after 13 days; for pest or weed control at 250 g/ha: 250 g ai/ha, read-out: damage to plant, Foxtail, Giant (100=total damage to plant; 0=no damage to plant)
Method in brief: (§2)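 Foliar application was made 8 days after sowing, using an aqueous spray of the active in acetone/water (50:50) with 0.5% Tween 20, at doses of 15.625, 62.5 or 250 g/ha. Injury was assessed 13 days later, where 100 meant the plant was fully damaged.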

[8] = test system: velvetleaf (Abutilon theophrasti); assay: Test G Post-Emergence Protocol; details: Abutilon theophrasti, post-emergence, 312 h; for pest or weed control at 15.625 g/ha: 15.625 g ai/ha, evaluated after 13 days (100=total damage to plant; 0=no damage to plant), read-out: Velvetleaf damage rating; for pest or weed control at 62.5 g/ha: 62.5 g ai/ha, read-out: Velvetleaf damage rating (100=total damage to plant; 0=no damage to plant); for pest or weed control at 62.5 g/ha / pest or weed control at 250 g/ha: evaluated after 13 days; for pest or weed control at 250 g/ha: 250 g ai/ha, read-out: damage to plant, Velvetleaf (100=total damage to plant; 0=no damage to plant)
Method in brief: as §2

[9] = test system: redroot pigweed (Amaranthus retroflexus); assay: Test G Post-Emergence Protocol; details: Amaranthus retroflexus, post-emergence, 312 h; for pest or weed control at 15.625 g/ha: 15.625 g ai/ha, evaluated after 13 days (100=total damage to plant; 0=no damage to plant), read-out: Pigweed, Redroot damage rating; for pest or weed control at 62.5 g/ha: 62.5 g ai/ha, read-out: Pigweed, Redroot damage rating (100=total damage to plant; 0=no damage to plant); for pest or weed control at 62.5 g/ha / pest or weed control at 250 g/ha: evaluated after 13 days; for pest or weed control at 250 g/ha: 250 g ai/ha, read-out: damage to plant, Pigweed, Redroot (100=total damage to plant; 0=no damage to plant)
Method in brief: as §2

[10] = test system: ivy-leaved morning glory (Ipomoea hederacea); assay: Test G Post-Emergence Protocol; details: Ipomoea, post-emergence, 312 h; for pest or weed control at 15.625 g/ha: 15.625 g ai/ha, evaluated after 13 days (100=total damage to plant; 0=no damage to plant), read-out: Morningglory, Ivy-leaved damage rating; for pest or weed control at 62.5 g/ha: 62.5 g ai/ha, read-out: Morningglory, Ivy-leaved damage rating (100=total damage to plant; 0=no damage to plant); for pest or weed control at 62.5 g/ha / pest or weed control at 250 g/ha: evaluated after 13 days; for pest or weed control at 250 g/ha: 250 g ai/ha, read-out: damage to plant, Morningglory, Ivy-leaved (100=total damage to plant; 0=no damage to plant)
Method in brief: as §2

[11] = test system: barnyardgrass (Echinochloa crus-galli); assay: Test G Post-Emergence Protocol; details: Echinochloa crus-galli, post-emergence, 312 h; for pest or weed control at 15.625 g/ha: 15.625 g ai/ha, evaluated after 13 days (100=total damage to plant; 0=no damage to plant), read-out: Barnyardgrass damage rating; for pest or weed control at 62.5 g/ha: 62.5 g ai/ha, read-out: Barnyardgrass damage rating (100=total damage to plant; 0=no damage to plant); for pest or weed control at 62.5 g/ha / pest or weed control at 250 g/ha: evaluated after 13 days; for pest or weed control at 250 g/ha: 250 g ai/ha, read-out: damage to plant, Barnyardgrass (100=total damage to plant; 0=no damage to plant)
Method in brief: as §2

corn (Zea mays) [12] = assay: Test G Post-Emergence Protocol; details: Zea mays, post-emergence, 312 h; for plant injury at 15.625 g/ha: 15.625 g ai/ha, evaluated after 13 days (100=total damage to plant; 0=no damage to plant), read-out: Corn damage rating; for plant injury at 62.5 g/ha: 62.5 g ai/ha, read-out: Corn damage rating (100=total damage to plant; 0=no damage to plant); for plant injury at 62.5 g/ha / plant injury at 250 g/ha: evaluated after 13 days; for plant injury at 250 g/ha: 250 g ai/ha, read-out: damage to plant, Corn (100=total damage to plant; 0=no damage to plant)
Method in brief: as §2

SMILES	pest or weed control at 15.625 g/ha [1]	pest or weed control at 62.5 g/ha [1]	pest or weed control at 250 g/ha [1]	pest or weed control at 15.625 g/ha [2]	pest or weed control at 62.5 g/ha [2]	pest or weed control at 250 g/ha [2]	pest or weed control at 15.625 g/ha [3]	pest or weed control at 62.5 g/ha [3]	pest or weed control at 250 g/ha [3]	pest or weed control at 15.625 g/ha [4]	pest or weed control at 62.5 g/ha [4]	pest or weed control at 250 g/ha [4]	pest or weed control at 15.625 g/ha [5]	pest or weed control at 62.5 g/ha [5]	pest or weed control at 250 g/ha [5]	plant injury at 15.625 g/ha (corn (Zea mays) [6])	plant injury at 62.5 g/ha (corn (Zea mays) [6])	plant injury at 250 g/ha (corn (Zea mays) [6])	pest or weed control at 15.625 g/ha [7]	pest or weed control at 62.5 g/ha [7]	also measured
CN1C[C@@H](c2ccc(C(F)(F)F)cc2)[C@H](C(=O)Nc2nccs2)C1=O (racemic) [Compound 1554]	0%	0%	20%	0%	0%	0%	0%	0%	30%	0%	0%	0%	0%	0%	10%	0%	0%	0%	0%	0%	pest or weed control at 250 g/ha [7]: 0%; pest or weed control at 15.625 g/ha [8]: 0%; pest or weed control at 62.5 g/ha [8]: 0%; pest or weed control at 250 g/ha [8]: 0%; pest or weed control at 15.625 g/ha [9]: 0%; pest or weed control at 62.5 g/ha [9]: 0%; pest or weed control at 250 g/ha [9]: 0%; pest or weed control at 15.625 g/ha [10]: 0%; pest or weed control at 62.5 g/ha [10]: 0%; pest or weed control at 250 g/ha [10]: 0%; pest or weed control at 15.625 g/ha [11]: 0%; pest or weed control at 62.5 g/ha [11]: 0%; pest or weed control at 250 g/ha [11]: 0%; plant injury at 15.625 g/ha (corn (Zea mays) [12]): 0%; plant injury at 62.5 g/ha (corn (Zea mays) [12]): 0%; plant injury at 250 g/ha (corn (Zea mays) [12]): 0%
Cc1ncsc1NC(=O)[C@@H]1C(=O)N(C)C[C@H]1c1ccc(C(F)(F)F)cc1 (racemic) [Compound 1635]	0%	0%	0%	0%	0%	0%	0%	0%	0%	0%	0%	0%	0%	0%	0%	0%	0%	0%	0%	10%	pest or weed control at 250 g/ha [7]: 40%; pest or weed control at 15.625 g/ha [8]: 0%; pest or weed control at 62.5 g/ha [8]: 0%; pest or weed control at 250 g/ha [8]: 0%; pest or weed control at 15.625 g/ha [9]: 0%; pest or weed control at 62.5 g/ha [9]: 0%; pest or weed control at 250 g/ha [9]: 10%; pest or weed control at 15.625 g/ha [10]: 0%; pest or weed control at 62.5 g/ha [10]: 0%; pest or weed control at 250 g/ha [10]: 0%; pest or weed control at 15.625 g/ha [11]: 0%; pest or weed control at 62.5 g/ha [11]: 0%; pest or weed control at 250 g/ha [11]: 30%; plant injury at 15.625 g/ha (corn (Zea mays) [12]): 0%; plant injury at 62.5 g/ha (corn (Zea mays) [12]): 0%; plant injury at 250 g/ha (corn (Zea mays) [12]): 0%

Reference: patent US12077503B2, “Substituted cyclic amides and their use as herbicides” (FMC CORPORATION, priority 2015, dated 2024)
